Test results as given in US20200317813A1, “TREATMENT AND DIAGNOSIS OF NON-PROLIFERATIVE DIABETIC RETINOPATHY” (Johann Wolfgang Goethe-Universitat Frankfurt am Main, priority 2016, published 2020).

How the values were obtained:
pericytes [1] = experiment: N-cadherin internalization assay; assay type: cell-based, human; conditions: 3 μmol/L, 3 hours (not shown)
Protocol: (§1) VE-cadherin internalization was determined as described^40. Endothelial cells were cultured on culture slides (BD, Heidelberg, Germany) coated with crosslinked gelatin until confluent and starved with 2% FCS overnight. Cells were then incubated with antibody against extracellular domain of human VE-cadherin (clone BV6, ALX-803-305 Enzo Life Sciences, Lörrach, Germany) at 4° C. for 1 hour in MCDB131 with 1% BSA medium. Unbound antibody was removed by rinsing cells with ice-cold MCDB131 medium. […] To block the degradation of internalized VE-cadherin chloroquine (300 μmol/L) was be added to the incubation medium. To assess internalized endogenous VE-cadherin cells were washed with ice-cold acid wash buffer (Hanks buffer, pH=2.7, containing 25 mmol/L glycine and 1% BSA) to assess total VE-cadherin cells were rinsed with ice-cold neutral washing buffer (Hanks buffer with 1% BSA, pH=7.4). Cells were fixed with 4% PFA for 15 minutes at 4° C. and then processed for immunofluorescence. To assess N-cadherin internalization, pericytes were incubated with an antibody against the extracellular domain of human N-cadherin (clone 8C11, 350802 BioLegend, CA. USA) at 4° C. for 1 hour in DMEM containing 1% BSA. […] Samples were imaged with an SP8 confocal microscope (Leica) and internalized particles were quantified using ImageJ (NIH) software.

human endothelial cells = experiment: VE-cadherin staining and internalization in cultured endothelial cells; assay type: cell-based; conditions: 3 hours; for internalization of VE-cadherin: in the presence of t-AUCB (10 μmol/L), pre-labelled antibody and immunoprecipitation
Protocol: Cells were fixed with 4% PFA for 10 min at room temperature. After washing with PBS samples were blocked and permeabilized with 1% BSA, 5% horse serum, 0.5% Triton X-100 at room temperature for 2 hours or at 4° C. overnight before being exposed to primary antibody (4° C., overnight). After extensive washing and exposure to Alexa Fluor-coupled secondary antibody (1:200, 2 hours, room temperature) samples were mounted in fluorescent mounting medium and analyzed with a confocal microscope; Leica SP8 confocal microscope and LASX software (Wetzlar, Germany) or Carl Zeiss LSM-780 and ZEN software (Jena, Germany) as described^6′^32.
as §1, with “immunofluorescence.” for “immunofluorescence. To assess N-cadherin internalization, pericytes were incubated with an antibody against the extracellular domain of human N-cadherin (clone 8C11, 350802 BioLegend, CA. USA) at 4° C. for 1 hour in DMEM containing 1% BSA.”
Confluent cultures of human endothelial cells were incubated with antibodies recognizing the extracellular domains of human VE-cadherin (BV6 antibody) at 4° C. […] Samples were washed with lysis buffer and analyzed by SDS-PAGE.

γ-secretase = γ-secretase (Homo sapiens, UniProt P49768); conditions: by redistribution of PS1 out of lipid rafts, retina; cited from earlier work
[2] = system: retinas from 7 month old wild-type mice; experiment: Retinal explants, ex vivo retina whole mount model; assay type: cell-based, mouse; conditions: ex vivo organ culture, 4 day period, 5 μmol/L
Protocol: Eyes from 7 months old animals were enucleated and immersed in ice-cold HBSS containing penicillin (100 U/mL) and streptomycin (100 μg/mL). Retinas were carefully dissected under stereomicroscope and divided into four quadrants with four deep radial incisions. The explants were transferred onto tissue culture inserts (0.4 μm pore, Millipore; Cork, Ireland) with the retinal ganglion cell side facing up. The inserts were placed into the wells of a 6-well plate. A serum free retinal explant media (Neurobasal A, Invitrogen) supplemented with 2% B27 (Invitrogen), 1% N2 (Invitrogen), L-glutamine (0.8 mmol/L), penicillin (100 U/mL), and streptomycin (100 μg/mL) were added to the bottle of the wells and 3 μL of media was dropped on top of the retina to keep it moist. […] After 4 days, retinas were fixed and processed as described above.

[3] = system: endothelial cell-pericyte co-cultures; experiment: Endothelial cell-pericyte co-culture: cadherin expression, lipid rafts, immunoprecipitation; assay type: cell-based, human; conditions: for N-cadherin expression in cocultured cells: 19,20-EDP/19,20-DHDP 3 μmol/L, VEGF 20 ng/ml; for N-cadherin expression in cocultured cells / association (co-precipitation) of PS1 with N-cadherin and VE-cadherin / association of p120 catenin with N- or VE-cadherin: 24 hours; for lipid raft association and membrane presentation of N-cadherin: endothelial cell-pericyte cocultures; for association (co-precipitation) of PS1 with N-cadherin and VE-cadherin / association of p120 catenin with N- or VE-cadherin: immunoprecipitation from co-cultures
Protocol: Human umbilical vein endothelial cells were cultured on fibronectin coated dishes until confluent. Then pericytes were seeded on top of the endothelial cells (PC:EC=1:5) and cocultured for a further 3 days. […] Cells were then lysed with HEPES buffer: 25 mmol/L HEPES pH 7.4, 150 mmol/L NaCl, complete protease inhibitor cocktail (Roche), and 1% digitonin (Sigma). Following centrifugation at 17,000 g for 10 minutes, supernatants (1 mg of protein) were pre-cleaned with protein A/G agarose (Pierce) for 30 mins. Supernatants were then incubated with anti-VE-cadherin (1:1000, AF1002 R&D systems, Abingdon, UK) or N-cadherin (1:1000, 33-3900 life technologies, CA, USA) antibodies at 4° C. for 2 hours and then treated with protein A/G agarose for a further 2 hours. Samples were washed with lysis buffer and analyzed by SDS-PAGE.
Samples were separated by SDS-PAGE and subjected to Western blotting as described^41. Membranes were blocked in 3% BSA in PBS, incubated with primary and horseradish peroxidase-conjugated secondary antibodies in blocking solution, and detection was performed with a Lumi-Light plus western blotting substrate (Roche).
Lipid rafts were isolated as described with modifications^42. Briefly, cells were harvested by scraping and homogenized at 4° C. in sodium carbonate (0.5 mol/L, pH11) using a glass homogenizer, followed by sonication. Then, equal amounts of protein were adjusted to a final sucrose concentration of 45% (final volume, 4 mL) and transferred to 12 mL ultracentrifuge tubes. A discontinuous sucrose gradient was then formed by sequentially overlaying 4 mL of 35% and 4 ml, of 5% sucrose. Samples were subjected to ultracentrifugation (35,000 rpm, 4° C. for 20 hours) using a Beckman SW 41 rotor (Krefeld, Germany). After centrifugation, twelve 1 mL fractions were collected using a capillary tube connected to a peristaltic pump, and equal volumes of each faction were analyzed by SDS-PAGE using antibodies against flotillin 1 (1:2000, 610820 BD Biosciences, Heidelberg, Germany), VE-cadherin (1:1000, sc-28644 Santa Cruz, Darmstadt, Germany) and N-cadherin (1:1000, 33-3900 lifetechnologies, CA, USA).

[4] = system: murine brain microvascular endothelial cells; experiment: Transendothelial electrical resistance (TEER); assay type: cell-based, mouse; conditions: 19,20-EDP/19,20-DHDP 3 μmol/L, VEGF 20 ng/ml, 24 hours
Protocol: Impedance measurements were performed using isolated murine brain microvascular endothelial cells with a cellZscope device (nano-Analytics) as described^38. […] Measurements were performed four times in quadruplicate with endothelial cells from four different cell preparations.

pericytes [5] = experiment: In vitro pericyte migration on endothelial cell monolayer; assay type: cell-based, human; conditions: 3 μmol/L
Protocol: Human umbilical vein endothelial cells were isolated and cultured as described^37, seeded on μ-slides (ibidi, Martinsried, Germany) and grown to confluence. Pericytes were labeled with cell tracker green (Invitrogen) and added to the endothelial cell monolayer. Cells were treated with either solvent (0.03% DMSO), 19,20-EDP (3 μmol/L), 19,20-DHDP (3 μmol/L). Cells were incubated in an IncuCyte imaging system (Essen Bioscience) that took photographs automatically every 15 minutes for 48 hours. Pericyte movement on top of the endothelial cell monolayer were tracked manually and analyzed with Image J (NIH, Bethesda, Md., USA). In some experiments pericytes were treated with small interfering RNA directed against N-cadherin (sc-29403, Santa Cruz). Transfection was performed with lipofectamine 2000 (Invitrogen) following the manufacturer's instructions and a scrambled control siRNA was used as control.

[6] = system: retinas from wild-type and Ins2Akita mice; experiment: Retinal growth factor and Notch gene expression in mice treated with sEH inhibitor; assay type: in vivo, mouse
Protocol: Total RNA from retinas was extracted using an RNeasy kit (QIAGEN, Hilden, Germany), and equal amounts (1 μg) of total RNA was reverse transcribed (Superscript III; Invitrogen). Gene expression levels were detected using SYBR Green (Absolute QPCR SYBR Green Mix; Thermo Fisher Scientifc). The relative expression levels of the different genes studied was calculated using the 2^−ΔΔCt method with the 18S RNA as a reference.

Ins2Akita mice = conditions: mouse, in vivo
sEH = target: T1, sEH (Homo sapiens, UniProt P34913); conditions: cited from earlier work
T1 sequence (P34913 1-555): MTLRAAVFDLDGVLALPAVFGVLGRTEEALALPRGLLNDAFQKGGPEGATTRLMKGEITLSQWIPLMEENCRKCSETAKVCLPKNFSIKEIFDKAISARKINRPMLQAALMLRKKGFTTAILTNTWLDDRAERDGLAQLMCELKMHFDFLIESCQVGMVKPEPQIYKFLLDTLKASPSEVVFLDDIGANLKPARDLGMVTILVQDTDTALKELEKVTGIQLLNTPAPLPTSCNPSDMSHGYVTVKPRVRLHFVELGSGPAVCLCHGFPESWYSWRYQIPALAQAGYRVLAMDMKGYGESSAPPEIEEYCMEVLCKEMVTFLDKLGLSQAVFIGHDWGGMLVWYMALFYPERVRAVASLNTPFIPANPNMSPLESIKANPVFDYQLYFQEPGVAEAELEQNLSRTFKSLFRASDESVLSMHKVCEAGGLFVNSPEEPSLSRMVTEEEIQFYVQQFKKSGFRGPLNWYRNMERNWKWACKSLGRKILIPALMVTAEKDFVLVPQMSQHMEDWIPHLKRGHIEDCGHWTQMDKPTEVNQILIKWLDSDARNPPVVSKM

Row | Compound | N-cadherin internalization (pericytes [1]) | internalization of VE-cadherin (human endothelial cells) | capillary pericyte loss and pericyte migration [2] | N-cadherin expression in cocultured cells [3] | lipid raft association and membrane presentation of N-cadherin [3] | association (co-precipitation) of PS1 with N-cadherin and VE-cadherin [3] | association of p120 catenin with N- or VE-cadherin [3] | transendothelial electrical resistance [4] | other results
1 | 19,20-dihydroxydocosapentaenoic acid [19,20-DHDP] | induce | detected | induced | decreased | disrupt | attenuated | did not influence | decreased | VE-cadherin staining of confluent endothelial cells (human endothelial cells; 3 μmol/L): discontinuous; γ-secretase activity (γ-secretase): inhibit; pericyte motility (pericytes [5]): increase
2 | O=C(NC12CC3CC(CC(C3)C1)C2)N[C@H]1CC[C@H](Oc2ccc(C(=O)O)cc2)CC1 (relative stereo) [t-AUCB, trans-4-[4-(3-adamantan-1-ylureido)cyclohexyloxy]-benzoic acid] | – | – | – | – | – | – | – | – | Hey1 and Jagged 1 expression [6]: tend to increase; PDFG receptor β levels in retinas [6]: failed to significantly alter; PDGFB expression in retinas [6]: increased; N-cadherin expression in retinas (Ins2Akita mice): largely maintained; co-localization of VE-cadherin and N-cadherin with PS1 in retinas (Ins2Akita mice): maintained; loss of desmin positive cells in retinas (Ins2Akita mice): prevented
3 | CCC1OC1CC=CCC=CCC=CCC=CCC=CCCC(=O)O (stereo not shown) [19,20-EDP, 19,20 epoxydocosapentaenoic acid] | not | not | largely ineffective | without effect | not | without effect | – | – | –
4 | CCCCCCCCCCCCNC(=O)NC12CC3CC(CC(C3)C1)C2 [ADU, N-Adamantyl-N′-dodecyl urea] | – | – | – | – | – | – | – | – | activity on sEH (sEH): particularly high activity
5 | VEGF | – | – | – | without effect | – | attenuated | decreased recovery | alterations induced by 19,20-DHDP were however less pronounced than those elicited by vascular endothelial cell growth factor | –
